Measurements published in US20190070174A1, “METHODS OF TREATING NEURODEGENERATIVE DISEASES” (priority 2016, published 2019).

Columns and labels:
[1] = tested on: ATXN3Q81.Luc fusion protein; assay: Confirmation dose-response, ATXN3 levels by immunoblotting; type: cell-based, human; conditions: 293.ATXN3Q81Luc cells
Description: Full-length ATXN3 (Accession number ABS29269) carrying either a normal or an expanded polyQ tract (Q26 or Q81) was subcloned in the vector pcDNA3.1 FLAG.firefly Luciferase. The mammalian expression plasmids pcDNA.FLAG.ATXN3Q26.Luc and pcDNA.FLAG.ATXN3Q81.Luc were confirmed by sequencing and shown to express N-terminal FLAG-tagged ATXN3Q26 or ATXN3Q81 fused with firefly Luciferase (Luc), respectively. These neomycin-resistant plasmids were transfected into HEK293 cells using Lipofectamine LTX (Invitrogen) during four hours, after which medium was replaced by growth medium (DMEM/10% fetal bovine serum (FBS)/1% penicillin/streptomycin (PS)). […] After one month of passage in selection medium, stably transfected clones for each cell line (293.ATXN3Q26Luc and 293.ATXN3Q81Luc) were pooled and frozen in liquid nitrogen. Stably transfected cell lines were maintained in selection medium except during treatment with specific compounds that were diluted in growth medium.
Protein lysates from cell cultures, mouse brain slices or mouse brains were obtained by lysis in RIPA buffer containing protease inhibitors (Complete, Roche Diagnostics), followed by sonication and centrifugation. The supernatants (soluble protein fractions) were collected, total protein concentration was determined using the BCA method (Pierce) and then stored at −80° C. Total proteins (50 μg from cell and slice cultures or 75 μg from brain regions of mice) were resolved in 10% SDS-PAGE gels, and corresponding PVDF membranes were incubated overnight at 4° C. with primary antibodies: mouse anti-ATXN3 (1H9) (1:2000; MAB5360, Millipore), goat anti-Luciferase (1:500; G7451, Promega), mouse anti-FLAG (M5) (1:500; IB13091, Sigma), rabbit anti-LC3 (1:500; PM036, MBL International Corporation), mouse anti-HSP90β (1:1000; ADI-SPA842, Enzo Life Sciences), rabbit anti-HSP90α (1:1000; ab2928, Abcam), mouse anti-HSP70 (1:500; SPA810, Enzo Life Sciences), rabbit anti-HSP40 (1:1000; #4868, Cell Signaling), rabbit anti-HSP25 (1:1000; ADI-SPA801, Enzo Life Sciences), rabbit anti-HSF1 (1:1000, ADI-SPA-901, Enzo Life Sciences), rabbit anti-ubiquitin (1:1000, Z 0458, Dako), rabbit anti-RAD23A (1:5000; TA307264, Origene), rabbit anti-RAD23B (1:2000; A302-306A, Bethyl Labs), rabbit anti-α-Tubulin (11H10) (1:10000; #2125, Cell Signaling), and mouse anti-GAPDH (1:1000; MAB374, Millipore). Pellets corresponding to insoluble protein fractions were resuspended in 100 μL of Laemmli buffer 2× and boiled for 10 min. Insoluble proteins were then quantified, and 100 μg were loaded in a filter trap assay apparatus and transferred to a nitrocellulose membrane (0.45 μm pore) that was incubated overnight with rabbit anti-MJD antibody (1:5000) at 4° C. Bound primary antibodies were visualized by incubation with a peroxidase-conjugated anti-mouse or anti-rabbit secondary antibody (1:10000; Jackson Immuno Research Laboratories) followed by treatment with the ECL-plus reagent (Western Lighting, PerkinElmer) and exposure to autoradiography films. Band intensity was quantified by densitometry using ImageJ.

human mutant ATXN3Q84 = type: cell-based; conditions: sagittal brain slices treated for 48 hours, cerebellum and brainstem
Method: (§1) Nine slices per brain were used in each set of cultures. […] After 48 hours of incubation at 37° C./5% CO2, brain slices were assessed for ATXN3 levels by immunoblotting or immunofluorescence and for cell viability. For immunoblotting, each slice was macrodissected into separate cerebellum and brainstem that were immediately frozen at −80° C. in 80 μL and 150 μL of cold RIPA buffer containing protease inhibitors (Complete, Roche Diagnostics), respectively. Cell viability was assessed on treated slices by incubation in propidium iodide (PI) 1 μg/mL in culture medium for 1 hour. Slices were then mounted in PROLONG Gold Antifade Reagent (Invitrogen) and imaged using a FV500 Olympus confocal microscope.
Protein lysates from cell cultures, mouse brain slices or mouse brains were obtained by lysis in RIPA buffer containing protease inhibitors (Complete, Roche Diagnostics), followed by sonication and centrifugation. The supernatants (soluble protein fractions) were collected, total protein concentration was determined using the BCA method (Pierce) and then stored at −80° C. […] Pellets corresponding to insoluble protein fractions were resuspended in 100 μL of Laemmli buffer 2× and boiled for 10 min. Insoluble proteins were then quantified, and 100 μg were loaded in a filter trap assay apparatus and transferred to a nitrocellulose membrane (0.45 μm pore) that was incubated overnight with rabbit anti-MJD antibody (1:5000) at 4° C. Bound primary antibodies were visualized by incubation with a peroxidase-conjugated anti-mouse or anti-rabbit secondary antibody (1:10000; Jackson Immuno Research Laboratories) followed by treatment with the ECL-plus reagent (Western Lighting, PerkinElmer) and exposure to autoradiography films. Band intensity was quantified by densitometry using ImageJ.
To assess the efficacy of the five compounds to reduce ATXN3 levels in the mammalian brain, secondary screens in organotypic brain slice cultures derived from hemizygous YACMJD84.2 (Q84) transgenic mice were performed.

mouse Atxn3 = assay: Organotypic brain slice cultures from YACMJD84.2 (Q84) mice, immunoblotting; type: cell-based; conditions: sagittal brain slices treated for 48 hours, cerebellum and brainstem
Method: as §1
Protein lysates from cell cultures, mouse brain slices or mouse brains were obtained by lysis in RIPA buffer containing protease inhibitors (Complete, Roche Diagnostics), followed by sonication and centrifugation. The supernatants (soluble protein fractions) were collected, total protein concentration was determined using the BCA method (Pierce) and then stored at −80° C. […] Insoluble proteins were then quantified, and 100 μg were loaded in a filter trap assay apparatus and transferred to a nitrocellulose membrane (0.45 μm pore) that was incubated overnight with rabbit anti-MJD antibody (1:5000) at 4° C. […] Band intensity was quantified by densitometry using ImageJ. […]

SMILES	levels of ATXN3Q81.Luc fusion protein [1]	levels of human mutant ATXN3Q84 (human mutant ATXN3Q84)	levels of mouse Atxn3 (mouse Atxn3)
CC[C@@H](C(=O)[C@@H](C)[C@@H](O)[C@H](C)[C@@H]1O[C@@H]([C@@H](CC)C(=O)O)CC[C@@H]1C)[C@H]1O[C@]2(C=C[C@@H](O)[C@]3(CC[C@@](C)([C@H]4CC[C@](O)(CC)[C@H](C)O4)O3)O2)[C@H](C)C[C@@H]1C [salinomycin sodium]	confirmed to decrease levels of ATXN3Q81.Luc fusion protein	reduced levels	reduced levels
Clc1ccccc1C(c1ccccc1)(c1ccccc1)n1ccnc1 [clotrimazole]	confirmed to decrease levels of ATXN3Q81.Luc fusion protein	did not alter ATXN3 levels	
CC#C[C@]1(O)CC[C@H]2[C@@H]3CCC4=CC(=O)CCC4=C3[C@@H](c3ccc(N(C)C)cc3)C[C@@]21C [mifepristone]	confirmed to decrease levels of ATXN3Q81.Luc fusion protein	did not alter ATXN3 levels	
Cc1c(C(=O)NN2CCCCC2)nn(-c2ccc(Cl)cc2Cl)c1-c1ccc(I)cc1 [AM251]	confirmed to decrease levels of ATXN3Q81.Luc fusion protein		
